Assay results: paper PMC9504178 (Viruses, 2022)

How the values were obtained:
[1] = system: NL09 or NL11; format: cell-based, influenza A virus
[2] = system: NL09 and NL11 strains; format: cell-based, influenza A virus

SMILES	reduction of viral titers in hPCLSs [1]	viral reduction in hPCLSs [1]	viral reduction in A549 cells [2]
CN(C)C/C=C/C(=O)Nc1cc2c(Nc3ccc(F)c(Cl)c3)ncnc2cc1O[C@H]1CCOC1 [AF, afatinib]	more than 1000 fold		
Cn1cc(-c2cc3c(N4CCN(c5ncc([C@@](C)(N)c6ccc(F)cc6)cn5)CC4)ncnn3c2)cn1 [AV, avapritinib]	~ 10 fold		
CNC(=O)c1cc(Oc2ccc(NC(=O)Nc3ccc(Cl)c(C(F)(F)F)c3)c(F)c2)ccn1 [RG, regorafenib]	more than 1000 fold	~ 4 log10	~ 2 log10
